Among the data in patent US10455835B2, “Fungicidal compositions for controlling leaf spots in sugar beets” (Dow AgroSciences LLC, priority 2012, dated 2019) are percent disease severity values, retold here.

This test relates to Cercospora beticola (CERCBE). The experiment in a line: Activity vs. sugar beet leaf spot on inoculated sugar beet plants (disease severity). The test is classed as in vivo. Particulars: sugar beet 'HH88', factorial analysis across all rates and replicates. How it is done:
Evaluation of Protectant Activity of Fungicide Mixtures vs. sugar beet leaf spot caused by Cercospora beticola (CERCBE). Sugar beet plants (variety ‘HH88’) were grown in soil-less Metro mix and trimmed regularly to maintain an uniform plant size prior to test. To prepare inoculum, dried diseased beet leaves were placed in a moist chamber overnight to promote sporulation. Spores were rinsed off leaves with distilled water, filtered through cheesecloth to remove plant debris, then adjusted to 4×10^4 spores/ml. Tween 20 was added at 3 drops per 100 ml. Sugar beet seedlings were inoculated 3 days prior to or 4 to 5 days after fungicide treatments. Inoculated plants were kept in a dew chamber at 22° C. for 48 hr then incubated in a greenhouse set at 24° C. under a clear plastic hood until disease symptoms were fully expressed. Disease severity was assessed on both treated and untreated plants.
The following fungicides were used for an efficacy example:
The efficacy of various formulations is shown in the table below wherein the values are percent disease severity. Results of the factorial analysis across all rates and replicates.

On to `CC1COC(Cn2cncn2)(c2ccc(Oc3ccc(Cl)cc3)cc2Cl)O1` (centres unmarked) [difenconazole, 1H-1,2,4-Triazole, 1-((2-(2-chloro-4-(4-chlorophenoxy)phenyl)-4-methyl-1,3-dioxolan-2-yl)methyl)-], for which the percent disease severity reads like this: (Ex. 1, 3DC (inoculated 3 days prior to fungicide treatment), untreated disease severity 23.0) 1.2 b percent; (Ex. 2, 5DP (inoculated 5 days after fungicide treatment), untreated disease severity 31.0) 2.2 b percent; (Ex. 3, 3DC (inoculated 3 days prior to fungicide treatment), untreated disease severity 48.0) 0.6 c percent; (Ex. 4, 4DP (inoculated 4 days after fungicide treatment), untreated disease severity 35.0) 2.5 b percent; (Ex. 5, 3DC (inoculated 3 days prior to fungicide treatment), untreated disease severity 26.0) 0.4 c percent.
